In PMC3511610 (Pediatric blood & cancer, 2012):
Entries after “also recorded” stand apart in the source; their conditions may differ.

Assays:
[1] = Phase I trial: toxicity, dose-limiting toxicities, MTD; format: in vivo, human (pediatric patients); details: for recommended phase 2 dose, vorinostat part of the combination: with bortezomib
[2] = single agent, children with recurrent or refractory cancer; cited from earlier work
[3] = cited from earlier work
[4] = no reference given, cited from earlier work
[5] = Vorinostat pharmacokinetics, day 8 cycle 1, noncompartmental
[6] = Bortezomib plasma pharmacokinetics, day 8 cycle 1, three-compartment model; format: in vivo, human (pediatric patients)
NF-κB = NF-κB activity by ELISA in patient PBMCs; format: in vivo, human (pediatric patients)
Grp78 = Grp78 immunoblot in patient PBMCs; format: in vivo, human (pediatric patients); details: three evaluable of seven samples (four degraded); vs pre-treatment
[7] = prior pediatric single agent trials; cited from earlier work
[8] = Pediatric Preclinical Testing Program (PPTP); cited from earlier work
solid tumor = details: Pediatric Preclinical Testing Program (PPTP); cited from earlier work
[9] = Mean, n=6, single intravenous dose of 1.3 mg/m^2, day 8 cycle 1, plasma

O=C(CCCCCCC(=O)Nc1ccccc1)NO [vorinostat, Vorinostat]
MTD, vorinostat part of the combination ([1]; PO days 1–5 and 8–12, with bortezomib 1.3 mg/m^2/day days 1, 4, 8, 11): 230 mg/m^2/day | recommended phase 2 dose, vorinostat part of the combination ([1]; PO days 1–5 and 8–12 of a 21 day cycle): 230 mg/m^2/day | recommended phase 2 dose, vorinostat part of the combination ([1]; orally days 1–5 and 8–12 of a 21 day cycle): 230 mg/m^2/dose | DLTs [2]: neutropenia, thrombocytopenia, and hypokalemia | recommended phase 2 regimen in adults with solid tumors, vorinostat dose ([3]; daily for eight days every 21 days, with bortezomib): 400 mg | adult recommended dose ([4]; daily): 400 mg | Tmax ([5]; human, serum, po, 180 mg/m^2): 6 h | mean apparent clearance ([5]; mean over patients, dose levels 180–300 mg/m^2 oral, day 8 cycle 1): 198 L/m^2

CC(C)C[C@H](NC(=O)[C@H](Cc1ccccc1)NC(=O)c1cnccn1)B(O)O [bortezomib, Bortezomib]
MTD, bortezomib part of the combination ([1]; i.v. days 1, 4, 8, 11, with vorinostat 230 mg/m^2/day, bortezomib not escalated): 1.3 mg/m^2/day | Cl (clearance) [6, 9]: 9.1 L/hr/m^2 | Vc (volume of distribution in the central compartment) [6, 9]: 13 L/m^2 | plasma concentrations prior to the day 8 dose ([6]; cycle 1, dosed every three days, suggests accumulation): low plasma concentrations | AUC(0-inf) ([6]; human, plasma, iv, 1.3 mg/m2): 485 ng·h/mL | AUC(0-t) ([6]; human, plasma, iv, 1.3 mg/m2): 82 ng·h/mL | pretreatment NF-κB activity levels in PBMCs compared to levels 24 hours after bortezomib administration (NF-κB; Figure 1, 0 vs 24 hours): the same or increased | NF-κB activity in PBMCs after bortezomib treatment (NF-κB; PBMCs from solid tumor patients, with vorinostat): did not observe a decrease in NF-κB activity | NF-κB activation in PBMCs at 24 hours (NF-κB; in approximately half of the patient samples): increase in NF-κB activation | Grp78 protein expression in PBMCs after bortezomib treatment (Grp78): no induction of Grp78 detected; also recorded: not able to detect Grp78 induction | Dose-limiting toxicities (DLTs) [7]: thrombocytopenia, confusion, and febrile neutropenia associated with hypotension and an elevated creatinine | recommended phase 2 regimen in adults with solid tumors, bortezomib dose ([3]; days 1, 4, 8, and 11, with vorinostat): 1.3 mg/m^2/dose | in vitro anti-tumor activity [8]: widespread in vitro anti-tumor activity | in vivo solid tumor activity (solid tumor): limited to rhabdomyosarcoma, Wilms tumor, osteosarcoma, and medulloblastoma | adult MTD [4]: 1.3 mg/m^2/day
